In general, melting point refers to the temperature, or range, at which the solid turns liquid.

SMILES strings stand for the structures.

Consider `CN(C)CCn1ccc2ccc(NS(=O)(=O)c3ccc4ccccc4c3)cc21` [Example 2, N-[1-(2-Dimethylaminoethyl)-1H-indole-6-yl]-naphthalene-2-sulfonamide], for which the melting point fell in the range of 140 to 143 °C. As for `CN(C)CCn1ccc2ccc(NS(=O)(=O)c3cccc4ccccc34)cc21` [Example 3, N-[1-(2-Dimethylaminoethyl)-1H-indole-6-yl]-naphthalene-1-sulfonamide], the figure is 139 to 142 °C; as for `CN(C)CCn1ccc2ccc(NS(=O)(=O)c3cc(Cl)cc(Cl)c3)cc21` [Example 8, N-[1-(2-dimethylaminoethyl)-1H-indole-6-yl]-3,5-dichlorobenzenesulfonamide], 150 to 159 °C.

The record behind these values is patent US7462640B2, “Indol-6yl sulfonamide derivatives, their preparation and their use as 5-HT-6 as modulators” (Laboratorios del Dr. Esteve S.A., priority 2003, dated 2008).
